Results published in EPA's CvTdb concentration-time database (doi:10.1093/toxsci/kfy020).

Assays:
Assay in all cases: concentration in plasma after dosing
[1] = test system: rat; conditions: dosed: Dimethenamid, 1.0000000000 mg/kg, iv, male, Sprague-Dawley
[2] = test system: rat; conditions: 8 h; dosed: Dimethenamid; 5.0000000000 mg/kg; oral; male; Sprague-Dawley
[3] = test system: rat; conditions: dosed: Dimethenamid, 1.0000000000 mg/kg, iv, male, Sprague-Dawley; remark: listed apart in the source
[4] = test system: rat; conditions: dosed: Dimethenamid, 5.0000000000 mg/kg, oral, male, Sprague-Dawley
[5] = test system: rat; conditions: dosed: Dimethenamid, 5.0000000000 mg/kg, oral, male, Sprague-Dawley; remark: listed apart in the source
[6] = test system: rat; conditions: male, Sprague-Dawley
[7] = test system: rat; conditions: dosed: Permethrin, 1.0000000000 mg/kg, iv, male, Sprague-Dawley
[8] = test system: rat; conditions: dosed: Permethrin, 5.0000000000 mg/kg, oral, male, Sprague-Dawley
[9] = test system: rat; conditions: dosed: Permethrin, 5.0000000000 mg/kg, oral, male, Sprague-Dawley; remark: listed apart in the source
[10] = test system: rat; conditions: dosed: Permethrin, 1.0000000000 mg/kg, iv, male, Sprague-Dawley; remark: listed apart in the source
[11] = test system: rat; conditions: dosed: Permethrin, 5.0000000000 mg/kg, oral, male, Sprague-Dawley; remark: listed apart in the source
[12] = test system: rat; conditions: dosed: Permethrin, 5.0000000000 mg/kg, oral, male, Sprague-Dawley; remark: listed apart in the source
[13] = test system: rat; conditions: dosed: Permethrin, 5.0000000000 mg/kg, oral, male, Sprague-Dawley; remark: listed apart in the source
[14] = test system: rat; conditions: dosed: Propamocarb hydrochloride, 1.0000000000 mg/kg, iv, male, Sprague-Dawley
[15] = test system: rat; conditions: dosed: Propamocarb hydrochloride, 1.0000000000 mg/kg, iv, male, Sprague-Dawley; remark: listed apart in the source
[16] = test system: rat; conditions: dosed: Propamocarb hydrochloride, 5.0000000000 mg/kg, oral, male, Sprague-Dawley
[17] = test system: rat; conditions: dosed: Propamocarb hydrochloride, 5.0000000000 mg/kg, oral, male, Sprague-Dawley; remark: listed apart in the source
[18] = test system: rat; conditions: dosed: Propamocarb hydrochloride, 5.0000000000 mg/kg, oral, male, Sprague-Dawley; remark: listed apart in the source

In the case of `COCC(C)N(C(=O)CCl)c1c(C)csc1C` (stereo unspecified) [Dimethenamid], the concentration in plasma ([1]; 5 min) is reported as 91.9 ng/mL, the concentration in plasma ([1]; 10 min) is reported as 38.1 ng/mL and the concentration in plasma ([1]; 0.5 h) is reported as 14.9 ng/mL. The concentration in plasma ([1]; 1 h) was 6.2 ng/mL, the concentration in plasma ([1]; 2 h) was 1.9 ng/mL and the concentration in plasma ([1]; 4 h) was 0.6 ng/mL. For the same compound, the concentration in plasma [2] was 287 ng/mL, the concentration in plasma ([3]; 5 min) was 193 ng/mL and the concentration in plasma ([3]; 10 min) was 110 ng/mL. For the same compound, the concentration in plasma ([3]; 0.5 h) was 20.9 ng/mL, the concentration in plasma ([3]; 1 h) was 7.4 ng/mL and the concentration in plasma ([3]; 2 h) was 2.1 ng/mL. It also gave a concentration in plasma ([3]; 4 h) of 0.8 ng/mL, a concentration in plasma ([4]; 0.25 h) of 1.8 ng/mL and a concentration in plasma ([4]; 0.5 h) of 1.4 ng/mL. The concentration in plasma ([4]; 1 h) was 0.6 ng/mL, the concentration in plasma ([4]; 2 h) was 0.7 ng/mL and the concentration in plasma ([4]; 4 h) was 1 ng/mL. The concentration in plasma ([4]; 8 h) was 0.5 ng/mL, the concentration in plasma ([4]; 24 h) was 0.2 ng/mL and the concentration in plasma ([4]; 48 h) was 0.3 ng/mL. It also gave a concentration in plasma ([4]; 72 h) of 0.3 ng/mL, a concentration in plasma ([5]; 0.25 h) of 0.6 ng/mL and a concentration in plasma ([5]; 0.5 h) of 0.5 ng/mL. It also gave a concentration in plasma ([5]; 2 h) of 0.6 ng/mL, a concentration in plasma ([5]; 4 h) of 0.6 ng/mL and a concentration in plasma ([5]; 8 h) of 0.2 ng/mL. The concentration in plasma ([6]; 5 min, dosed: Dimethenamid, 1.0000000000 mg/kg, iv) was 115 ng/mL, the concentration in plasma ([6]; 10 min, dosed: Dimethenamid, 1.0000000000 mg/kg, iv) was 60.7 ng/mL and the concentration in plasma ([6]; 0.25 h, dosed: Dimethenamid, 5.0000000000 mg/kg, oral) was 5.3 ng/mL. The concentration in plasma ([6]; 0.5 h, dosed: Dimethenamid, 1.0000000000 mg/kg, iv) was 19.3 ng/mL, the concentration in plasma ([6]; 0.5 h, dosed: Dimethenamid, 5.0000000000 mg/kg, oral) was 2 ng/mL and the concentration in plasma ([6]; 1 h, dosed: Dimethenamid, 1.0000000000 mg/kg, iv) was 7 ng/mL. It also gave a concentration in plasma ([6]; 1 h, dosed: Dimethenamid, 5.0000000000 mg/kg, oral) of 1.3 ng/mL, a concentration in plasma ([6]; 2 h, dosed: Dimethenamid, 1.0000000000 mg/kg, iv) of 1.4 ng/mL and a concentration in plasma ([6]; 2 h, dosed: Dimethenamid, 5.0000000000 mg/kg, oral) of 1.9 ng/mL. The concentration in plasma ([6]; 4 h, dosed: Dimethenamid, 1.0000000000 mg/kg, iv) was 0.8 ng/mL, the concentration in plasma ([6]; 4 h, dosed: Dimethenamid, 5.0000000000 mg/kg, oral) was 1.2 ng/mL and the concentration in plasma ([6]; 8 h, dosed: Dimethenamid, 1.0000000000 mg/kg, iv) was 0.3 ng/mL. The concentration in plasma ([6]; 8 h, dosed: Dimethenamid, 5.0000000000 mg/kg, oral) was 0.5 ng/mL, the concentration in plasma ([6]; 12 h, dosed: Dimethenamid, 5.0000000000 mg/kg, oral) was 0.3 ng/mL and the concentration in plasma ([6]; 24 h, dosed: Dimethenamid, 5.0000000000 mg/kg, oral) was 0.3 ng/mL. The concentration in plasma ([6]; 48 h, dosed: Dimethenamid, 5.0000000000 mg/kg, oral) was 0.3 ng/mL and the concentration in plasma ([6]; 72 h, dosed: Dimethenamid, 5.0000000000 mg/kg, oral) was 0.5 ng/mL.
`CC1(C)C(C=C(Cl)Cl)C1C(=O)OCc1cccc(Oc2ccccc2)c1` (stereo unspecified) [Permethrin] was tested, and the concentration in plasma ([7]; 10 min) was 3 ng/mL, the concentration in plasma ([7]; 12 h) was 2.9 ng/mL and the concentration in plasma ([8]; 0.5 h) was 33.4 ng/mL. The concentration in plasma ([8]; 1 h) was 87.2 ng/mL, the concentration in plasma ([8]; 2 h) was 40.8 ng/mL and the concentration in plasma ([8]; 4 h) was 27.2 ng/mL. The concentration in plasma ([9]; 0.25 h) was 21.3 ng/mL, the concentration in plasma ([9]; 0.5 h) was 15.7 ng/mL and the concentration in plasma ([9]; 1 h) was 18.3 ng/mL. It also gave a concentration in plasma ([9]; 2 h) of 21.5 ng/mL, a concentration in plasma ([9]; 4 h) of 28.4 ng/mL and a concentration in plasma ([9]; 8 h) of 15.1 ng/mL. It also gave a concentration in plasma ([10]; 1 h) of 9.5 ng/mL, a concentration in plasma ([10]; 4 h) of 2.1 ng/mL and a concentration in plasma ([11]; 0.5 h) of 8.1 ng/mL. It also gave a concentration in plasma ([11]; 1 h) of 15.2 ng/mL, a concentration in plasma ([11]; 2 h) of 15.9 ng/mL and a concentration in plasma ([6]; 10 min, dosed: Permethrin, 1.0000000000 mg/kg, iv) of 15.9 ng/mL. It also gave a concentration in plasma ([6]; 10 min, dosed: Permethrin, 5.0000000000 mg/kg, oral) of 15 ng/mL, a concentration in plasma ([6]; 0.5 h, dosed: Permethrin, 5.0000000000 mg/kg, oral) of 44.4 ng/mL and a concentration in plasma ([6]; 1 h, dosed: Permethrin, 1.0000000000 mg/kg, iv) of 6.7 ng/mL. It also gave a concentration in plasma ([6]; 1 h, dosed: Permethrin, 5.0000000000 mg/kg, oral) of 64.2 ng/mL, a concentration in plasma ([6]; 2 h, dosed: Permethrin, 5.0000000000 mg/kg, oral) of 71 ng/mL and a concentration in plasma ([6]; 4 h, dosed: Permethrin, 5.0000000000 mg/kg, oral) of 53.2 ng/mL. The concentration in plasma ([6]; 8 h, dosed: Permethrin, 5.0000000000 mg/kg, oral) was 26.1 ng/mL, the concentration in plasma ([6]; 12 h, dosed: Permethrin, 5.0000000000 mg/kg, oral) was 8.4 ng/mL and the concentration in plasma ([6]; 48 h, dosed: Permethrin, 5.0000000000 mg/kg, oral) was 5.2 ng/mL. For the same compound, the concentration in plasma ([12]; 10 min) was 10.1 ng/mL, the concentration in plasma ([12]; 0.5 h) was 37 ng/mL and the concentration in plasma ([12]; 1 h) was 54.2 ng/mL. The concentration in plasma ([12]; 2 h) was 62.2 ng/mL, the concentration in plasma ([12]; 4 h) was 48.5 ng/mL and the concentration in plasma ([12]; 8 h) was 12.3 ng/mL. The concentration in plasma ([12]; 12 h) was 1.5 ng/mL, the concentration in plasma ([13]; 0.5 h) was 7.1 ng/mL and the concentration in plasma ([13]; 1 h) was 10.5 ng/mL. It also gave a concentration in plasma ([13]; 2 h) of 14.9 ng/mL, a concentration in plasma ([13]; 4 h) of 16 ng/mL and a concentration in plasma ([13]; 8 h) of 7.8 ng/mL. It also gave a concentration in plasma ([13]; 12 h) of 3.3 ng/mL.
`CCCOC(=O)NCCCN(C)C.Cl` [Propamocarb hydrochloride] gave a concentration in plasma ([14]; 5 min) of 108 ng/mL, a concentration in plasma ([14]; 0.25 h) of 69.3 ng/mL and a concentration in plasma ([14]; 0.5 h) of 35.3 ng/mL. The concentration in plasma ([14]; 1 h) was 11 ng/mL, the concentration in plasma ([14]; 2 h) was 1.7 ng/mL and the concentration in plasma ([15]; 5 min) was 103 ng/mL. It also gave a concentration in plasma ([15]; 0.25 h) of 62.1 ng/mL, a concentration in plasma ([15]; 0.5 h) of 25.5 ng/mL and a concentration in plasma ([15]; 1 h) of 8.7 ng/mL. It also gave a concentration in plasma ([15]; 2 h) of 0.5 ng/mL, a concentration in plasma ([6]; 5 min, dosed: Propamocarb hydrochloride, 1.0000000000 mg/kg, iv) of 134 ng/mL and a concentration in plasma ([6]; 0.25 h, dosed: Propamocarb hydrochloride, 1.0000000000 mg/kg, iv) of 57.8 ng/mL. The concentration in plasma ([6]; 0.25 h, dosed: Propamocarb hydrochloride, 5.0000000000 mg/kg, oral) was 8.1 ng/mL, the concentration in plasma ([6]; 0.5 h, dosed: Propamocarb hydrochloride, 1.0000000000 mg/kg, iv) was 26.2 ng/mL and the concentration in plasma ([6]; 0.5 h, dosed: Propamocarb hydrochloride, 5.0000000000 mg/kg, oral) was 4.9 ng/mL. The concentration in plasma ([6]; 1 h, dosed: Propamocarb hydrochloride, 1.0000000000 mg/kg, iv) was 9.6 ng/mL, the concentration in plasma ([6]; 1 h, dosed: Propamocarb hydrochloride, 5.0000000000 mg/kg, oral) was 1.6 ng/mL and the concentration in plasma ([6]; 2 h, dosed: Propamocarb hydrochloride, 1.0000000000 mg/kg, iv) was 1 ng/mL. For the same compound, the concentration in plasma ([16]; 0.25 h) was 2.1 ng/mL, the concentration in plasma ([16]; 0.5 h) was 1.5 ng/mL and the concentration in plasma ([16]; 1 h) was 0.43 ng/mL. For the same compound, the concentration in plasma ([17]; 0.25 h) was 3.5 ng/mL, the concentration in plasma ([17]; 0.5 h) was 1.7 ng/mL and the concentration in plasma ([17]; 1 h) was 0.4 ng/mL. The concentration in plasma ([18]; 0.25 h) was 1.1 ng/mL, the concentration in plasma ([18]; 0.5 h) was 0.7 ng/mL and the concentration in plasma ([18]; 1 h) was 0.1 ng/mL.
